Our source for the Hair cycle score, Hair diameter and Ki67 positive cells values is patent US20230071574A1, “ANTI-HAIR LOSS AND HAIR GROWTH INTEGRATED CORE-SHELL MICRONEEDLE PATCH” (Tangyi Holdings (Shenzhen) Limited, priority 2021, published 2023).

For this test, the system named is mouse models with androgenic hair loss. The test can be described thus: Therapeutic effect of microneedle patches in mouse models with androgenic hair loss built by topical testosterone. The conditions noted are these: testosterone-induced androgenic hair loss mice; patches used 15 days, replaced every three days; Minoxidil solution applied daily for 13 days. Type of test: in vivo. How it is done: The therapeutic effect of the anti-hair loss and hair growth integrated core-shell microneedle patch is tested, the mouse models with androgenic hair loss are built by topical administration of testosterone solution every day for 28 days, five groups of mouse models with androgenic hair loss are used to test the effect of the microneedle patch, one of the groups is a model group to which only testosterone solution is applied, the blank microneedle patch, the nano-enzyme microneedle patch (prepared in Comparative Example 1) and the core-shell microneedle patch (prepared in Embodiment 1) are used on the other three groups of mouse models with androgenic hair loss respectively, the patches are used for 15 days and replaced every three days, a Minoxidil solution is used for the last group and applied every day for 13 consecutive days. The measurement results are shown in Table 1, and the therapeutic effect of the anti-hair loss and hair growth integrated core-shell microneedle patch is judged by scoring the hair diameter, percentage of Ki67 positive cells and hair cycle.

As for `Nc1cc(N2CCCCC2)nc(N)[n+]1[O-]` [Minoxidil], the Hair cycle score is on record as 22, the Hair diameter turned out to be 11 μm and the Ki67 positive cells was 20%.
